Reference: US6878736B1, “Histamine H3 receptor ligands” (James Black Foundation Limited, priority 1998, dated 2005)
Counter-ions that a name gives are not always drawn.

Assays:
Histamine H3 receptor [1] = target: T1, Histamine H3 receptor (Cavia porcellus, UniProt Q9JI35); assay: Histamine H3 radioligand binding assay, guinea pig cortex ([3H]-R-α-methylhistamine); conditions: guinea pig cortex membranes, competition with 1 nM [3H]-R-α-methylhistamine; for Ki: read-out: pKi (Guinea pig cortex) (converted)
Protocol: The compounds of the invention were also tested in a guinea pig cortex binding assay, as follows:
Histamine H3 Radioligand Binding Assay—Guinea Pig Cortex
Male Dunkin Hartley guinea pigs (200-300 g) were used. The whole brain was removed and immediately placed in ice-cold 20 mM Hepes-NaOH buffer (pH7.4 at 21±3° C.). The cortex was dissected, weighed and homogenised in ice-cold 20 mM Hepes-NaOH buffer (pH7.4 at 21±3° C.) (50 ml/guinea-pig cortex) using a polytron (Kinematica AG; PT-DA 3020/2TS, 3×3 s). The homogenate was centrifuged at 100×g for 5 min and the supernatants pooled and stored at 4° C. The pellets were rehomogenised in fresh ice-cold buffer (80 ml) and recentrifuged (100×g for 5 min). The supernatants were pooled and pellets rehomogenised and recentrifuged (100×g for 5 min). All supernatants were pooled and centrifuged at 39,800×g for 12 min at 4° C. The final pellet was resuspended in 20 mM Hepes-NaOH buffer (pH7.4 at 21±3° C.) to a tissue concentration of 7.5 mg.ml^−1, using a teflon-in-glass homogeniser.
Guinea pig cortex membranes (400 μl) were incubated for 165 min at 21±3° C. in a final volume of 500 μl with 20 mM Hepes-NaOH buffer containing [^3H]-R-α-methylhistamine (50 μl; 1 nM) and competing compound. Total and non-specific binding of [^3H]-R-α-methylhistamine were defined using 50 μl of buffer and 50 μl of 10 μM thioperamide, respectively. The assay was terminated by rapid filtration through Whatman GF/B filters, presoaked (2 hr) in 0.1% polyethyleneimine, using a Brandell Cell Harvester. The filters were washed (3×3 ml) with ice-cold 50 mM Tris-HCl (pH6.9 at 21±3° C.), transferred into scintillation vials, 5 ml liquid scintillation cocktail was added and after 4 hours the bound radioactivity was determined by counting (4 min) in a Beckman liquid scintillation counter.
Data are analysed using GraphPad prism and the general equation for a competition curve with variable Hill slope (nH). [formula] where • X is the log concentration of competing compound, • Y is the binding obtained at each concentration of X, • pIC50 is the concentration of the competitor required to compete for half of the specific binding.
The IC50 is converted to the K1 using the Cheng Prusoff equation, K1=IC50/(1+(L/KD)) where • IC50 is the concentration of competitor required to compete for half the specific binding, • L is the radioligand concentration used, • KD is the equilibrium dissociation constant for the radioligand determined by saturation experiments.

Histamine H3 receptor [2] = target: T1, Histamine H3 receptor; assay: Histamine H3 functional assay, guinea pig ileum (ileal longitudinal muscle, myenteric plexus); set-up: species or system tissue; conditions: antagonist affinity from rightward shift of R-(α)-methylhistamine E/[A] curves (Schild), typical variance ±0.15 log units; for Kb: read-out: pKb (Guinea pig ileum) (converted)
Protocol: • 1. J. Med. Chem 1994, 314. • 2. WO 97/29092 Histamine H3 Functional Assay—Guinea Pig Ileum
The biological activity of the compounds of the examples was measured using the ileal longitudinal muscle, myenteric plexus assay described by Paton and Aboo Zar (J. Physiol. 1968, 194, 13-33). Male Dunkin-Hartley guinea pigs (250-300 g) were employed. Briefly, a 50 cm portion of ileum proximal to the caecum was removed, after discarding the terminal 20 cm. Ileal segments (3 cm) were cleaned by passing Krebs-Henseleit buffer containing 3 μM mepyramine gently through the ileum using a Pasteur pipette (size: 13.8 cm length, 0.65 cm diameter). To avoid unnecessary damage to the tissue, Krebs-Henseleit buffer was passed through the ileal segment, while it was lying horizontally on a petri dish. Therefore, the ileum was not over-distended and the buffer flowed through with ease. Each segment was then passed over a Pasteur pipette and the longitudinal muscle layer and adhering myenteric plexus was teased away using moist cotton wool, by stroking tangentially away from the mesenteric attachment. The tissues were suspended in 20 ml organ baths containing Krebs-Henseleit buffer at 37±1° C. and gassed with […]. The tissues were ligated to two parallel stainless steel wires, situated between two platinum electrodes (0.76 cm length, 0.06 cm diameter). All measurements were recorded isometrically (Grass FTO3 transducer). Following an initial loading tension of 1 g, the tissues were stimulated with electrical pulses at a frequency of 0.1 Hz and a pulse duration of 0.5 msec, as described by Kosterlitz & Watt (Br. J. Pharmacol. 1968, 266276). Initially, the tissues were stimulated at supramaximal (1.3 fold times maximal) voltage for a period of 30 min and then the tissues were washed and re-stimulated. A “sighter dose” of the selective histamine H3-receptor agonist, R-(α)-methylhistamine (0.3 μM) (Arrang et al. Nature, 1987, 117-123), was administered. Upon generation of response, the “sighter dose” was removed from the tissues by “washout” (6 washes over 60 min) and during this period the electrical stimulation was switched off. The tissues were then re-stimulated and allowed to stabilise prior to the addition of drug treatments, which were allocated on a randomised block basis to the organ baths. Following the incubation period, a single cumulative E/[A] curve was obtained. The experimental E/[A] curve data was expressed as the percentage inhibition of the peak height of electrically-stimulated contraction. Antagonist affinity values were calculated from the degree of rightward shift of the R-(α)-methylhistamine E/[A] curves using Schild's methods (Arunlakshana & Schild Br. J. Pharmacol. 1959, 48-58). Typical variance in this assay is ±0.15 log units.

T1 sequence (Q9JI35 whole entry): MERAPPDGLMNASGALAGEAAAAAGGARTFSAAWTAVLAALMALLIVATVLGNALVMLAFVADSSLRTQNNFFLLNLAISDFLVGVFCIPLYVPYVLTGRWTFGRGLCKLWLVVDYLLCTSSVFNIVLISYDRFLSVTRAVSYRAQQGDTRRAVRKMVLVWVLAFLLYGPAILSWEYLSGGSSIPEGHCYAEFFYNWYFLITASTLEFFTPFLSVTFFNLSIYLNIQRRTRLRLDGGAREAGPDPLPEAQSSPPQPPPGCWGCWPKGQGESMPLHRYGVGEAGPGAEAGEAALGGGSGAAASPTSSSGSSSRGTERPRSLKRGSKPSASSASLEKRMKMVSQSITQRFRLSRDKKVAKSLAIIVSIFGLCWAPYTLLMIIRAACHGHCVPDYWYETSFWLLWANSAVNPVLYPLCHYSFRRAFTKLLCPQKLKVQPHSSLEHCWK

SMILES | Ki (Histamine H3 receptor [1]) [nM] | Kb (Histamine H3 receptor [2]) [nM] | pKi (Guinea pig cortex) (Histamine H3 receptor [1]) | pKb (Guinea pig ileum) (Histamine H3 receptor [2])
N=C(N)NCCCN1CCCC1 [Example 1, N-(3-Pyrrolidin-1-yl-propyl)-guanidine bis-hydrochloride] | 63.1 | 3980 | – | –
N=C(NCCCN1CCCC1)NCc1ccc(Cl)cc1 [Example 2, N-(4-Chlorobenzyl)-N′-(3-pyrrolidin-1-yl-propyl)-guanidine bis-hydrochloride] | 50.1 | 398 | – | –
COc1ccc(C/N=C(\N)NCCCN2CCCC2)cc1 [Example 3, N-(4-Methoxybenzyl)-N′-(3-pyrrolidin-1-yl-propyl)-guanidine bis-hydrochloride] | 79.4 | 794 | – | –
Cl.Cl.N=C(NCCCN1CCCC1)NCc1ccc2ccccc2c1 [Example 4, N-Naphthalen-2-yl-methyl-N′-(3-pyrrolidin-1-yl-propyl)-guanidine bis-hydrochloride] | – | – | 7.1 | 6.5
N=C(NCCCN1CCCC1)NCc1ccc(I)cc1 [Example 6, N-(4-Iodobenzyl)-N′-(3-pyrrolidin-1-yl-propyl)-guanidine bis-hydrochloride] | 50.1 | 398 | – | –
COc1ccc(CNC(=N)NCCCN2CCCC2)cc1Br [Example 7, N-(3-Bromo-4-methoxy-benzyl)-N′-(3-pyrrolidin-1-yl-propyl)-guanidine bis-hydrochloride] | 39.8 | 398 | – | –
N=C(NCCCN1CCCC1)NCc1ccccc1 [Example 8, N-Benzyl-N′-(3-pyrrolidin-1-yl-propyl)-guanidine bis-hydrochloride] | – | 631 | – | –
N=C(NCCCN1CCCC1)NCc1ccc(Br)cc1 [Example 9, N-(4-Bromobenzyl)-N′-(3-pyrrolidin-1-yl-propyl)-guanidine bis-hydrochloride] | 5.01 | 316 | – | –
N=C(NCCCN1CCCC1)NCc1cccc(Br)c1 [Example 10, N-(3-Bromobenzyl)-N′-(3-pyrrolidin-1-yl-propyl)-guanidine bis-hydrochloride] | 25.1 | 316 | – | –
N=C(NCCCN1CCCC1)NCc1ccccc1Br [Example 11, N-(2-Bromobenzyl)-N′-(3-pyrrolidin-1-yl-propyl)-guanidine bis-hydrochloride] | 39.8 | 501 | – | –
Cl.Cl.N=C(NCCCN1CCCC1)NCc1ccc(-c2ccccc2)cc1 [Example 12, N-Biphenyl-4-yl-methyl-N′-(3-pyrrolidin-1-yl-propyl)-guanidine bis-hydrochloride] | – | – | 6.2 | 6.3
N=C(NCCCN1CCCC1)NCc1ccc2[nH]cnc2c1 [Example 13, N-(1H-Benzimidazol-5-yl-methyl)-N′-(3-pyrrolidin-1-yl-propyl)-guanidine tris-hydrochloride] | 20 | 501 | – | –
COC(=O)c1ccc(CNC(N)=NCCCN2CCCC2)cc1 [Example 14, 4-(N′-(3-Pyrrolidin-1-yl-propyl)-guanidinomethyl)-benzoic acid methyl ester bis-hydrochloride] | 25.1 | 1000 | – | –
N=C(NCCN1CCCC1)NCc1ccc(Cl)cc1 [Example 16, N-(4-Chlorobenzyl)-N′-(2-pyrrolidin-1-yl-ethyl)-guanidine bis-hydrochloride] | 631 | 3980 | – | –
N=C(NCCCCN1CCCC1)NCc1ccc(Cl)cc1 [Example 17] | 5.01 | 50.1 | – | –
N=C(NCCCCCN1CCCC1)NCc1ccc(Cl)cc1 [Example 18, N-(4-Chlorobenzyl)-N′-(5-pyrrolidin-1-yl-pentyl)-guanidine bis-hydrochloride] | 5.01 | 50.1 | – | –
N=C(NCCCN1CCCC1)Nc1ccc(Cl)cc1 [Example 19, N-(4-Chlorophenyl)-N′-(3-pyrrolidin-1-yl-propyl)-guanidine] | 50.1 | 1000 | – | –
Cl.Cl.N=C(NCCCCCN1CCCC1)NCC12CC3CC(CC(C3)C1)C2 [Example 30, N-Adamantan-1-yl-methyl-N′-(5-pyrrolidin-1-yl-pentyl)-guanidine bis-hydrochloride] | – | – | 8.5 | 7.9

Continued, in another order:

Ki (Histamine H3 receptor [1]) [nM] | Kb (Histamine H3 receptor [2]) [nM] | SMILES | pKi (Guinea pig cortex) (Histamine H3 receptor [1]) | pKb (Guinea pig ileum) (Histamine H3 receptor [2])
1 | 200 | N=C(NCCCN1CCCC1)NCCc1ccc(Cl)cc1 [Example 20, N-(2(4-Chlorophenyl)ethyl)-N′-(3-pyrrolidin-1-yl-propyl)-guanidine bis-hydrochloride] | – | –
50.1 | 158 | N=C(NCCCc1ccc(Cl)cc1)NCCCN1CCCC1 [Example 21, N-(3-(4-Chlorophenyl)propyl)-N′-(3-pyrrolidin-1-yl-propyl)-guanidine bis-hydrochloride] | – | –
79.4 | 200 | N=C(NCCCCc1ccccc1)NCCCN1CCCC1 [Example 22, N-(4-Phenylbutyl)-N′-(3-pyrrolidin-1-yl-propyl)-guanidine bis-hydrochloride] | – | –
6.31 | 631 | N=C(NCCCCN1CCCC1)NCCc1ccc(Cl)cc1 [Example 24, N-(2-(4-Chlorophenyl)ethyl)-N′-(4-pyrrolidin-1-yl-butyl)-guanidine bis-hydrochloride] | – | –
7.94 | 79.4 | N=C(NCCCCCN1CCCC1)NCCc1ccc(Cl)cc1 [Example 25, N-(2-(4-Chlorophenyl)ethyl)-N′-(5-pyrrolidin-1-yl-pentyl)-guanidine bis-hydrochloride] | – | –
39.8 | 158 | N=C(NCCCN1CCCC1)NCCc1ccc(Br)cc1 [Example 26, N-(2-(4-Bromophenyl)ethyl)-N′-(3-pyrrolidin-1-yl-propyl)-guanidine bis-hydrochloride] | – | –
– | 50.1 | N=C(N)N(CCCCN1CCCC1)Cc1ccc(Cl)cc1 [Example 68, N-(4-Chlorobenzyl)-N-(4-pyrrolidin-1-yl-butyl)-guanidine bis-hydrochloride] | – | –
– | 3.98 | N=C(N)N(CCCCCCCN1CCCC1)Cc1ccc(Cl)cc1 [Example 71, N-(4-Chlorobenzyl)-N-(7-pyrrolidin-1-yl-heptyl)-guanidine bis-hydrochloride] | – | –
– | 7.94 | N=C(N)N(CCCCCCCCN1CCCC1)Cc1ccc(Cl)cc1 [Example 79, N-(4-Chlorobenzyl)-N-(8-pyrrolidin-1-yl-octyl)-guanidine bis-hydrochloride] | – | –
– | 10 | N=C(N)N(CCCCCCCCCN1CCCC1)Cc1ccc(Cl)cc1 [Example 80, N-(4-Chlorobenzyl)-N-(9-pyrrolidin-1-yl-nonyl)-guanidine bis-hydrochloride] | – | –
